Test results taken from PMC12019328, “Discovery of an ApoE4-targeted small-molecule SirT1 enhancer for the treatment of Alzheimer’s disease” (Scientific Reports, 2025).
Several values for one entry are separate records, joined by “and”; a condition that tells them apart may be missing. Equal entries are not always repeated.

Tests used:
[1] = In vivo pharmacokinetic analysis, brain levels after oral gavage; design: species or system C57BL/6J mice; details: for brain levels: single time point one hour, oral gavage 30 mg/Kg, n = 1
Protocol: […] One hour later, mice were euthanized by pentobarbital over-anesthesia and trans-cardial collection of blood for isolation of plasma by centrifugation at 10,000 x g for 10 min at 4 °C. Brain tissue was collected for analysis, frozen on dry ice and stored at -80 °C before analysis.
For LC/MS/MS analysis, tissue samples were homogenized in a bead beater using 5 volumes of ice-cold 80% acetonitrile (1/5; mg of tissue/ µL of 80% ACN). Solutions were clarified by centrifugation (16,000 x g, 5 min) and the supernatants were transferred to new tubes and lyophilized. Samples were reconstituted in 100 µL of 50/50/0.1 (water/acetonitrile/formic acid) before analysis via liquid chromatography-tandem mass spectrometry.
A 6460 triple quadrupole mass spectrometer (Agilent Technologies) coupled to a 1290 Infinity HPLC system (Agilent Technologies) with a Phenomenex analytical column (Kinetex 1.7 μm C18 100 Å 100 × 2.1 mm) was used for HPLC. The HPLC method utilized a mixture of solvent A (99.9/1 water/formic acid) and solvent B (99.9/1 acetonitrile/formic acid) and a gradient was used for the elution of the compounds (min/%B: 0/20, 3/20, 19/99, 20/99, 21/20, 30/20).
An internal standard (IS; Reserpine) was added to every sample to account for compound loss during sample processing. Standards were made in drug naïve brain and plasma with increasing amounts of DDL-214- (S1,S2: 0.1 pmol/ S3,S4: 1 pmol/ S5,S6: 10 pmol/ S7,S8: 100 pmol/ S9,S10: 1000 pmol). The standard curve was made by plotting the amount of each compound per standard vs. the ratio of measured chromatographic peak areas corresponding to DDL-214 (DDL-214 -/Reserpine). The trendline equation was then used to calculate the absolute concentrations of DDL-214/-218/-219 in brain tissue and plasma.

[2] = Observation of mice behavior in the PK study; type: in vivo; details: oral gavage 10 or 30 mg/Kg
Protocol: C57BL/6J mice were administered DDL-214, -218, or -219 (n = 3 per compound) by oral gavage at a dose of 30 mg/kg in a volume of 5 mL/Kg based on mouse weight. One hour later, mice were euthanized by pentobarbital over-anesthesia and trans-cardial collection of blood for isolation of plasma by centrifugation at 10,000 x g for 10 min at 4 °C. Brain tissue was collected for analysis, frozen on dry ice and stored at -80 °C before analysis.

[3] = test system: SirT1 protein in N2a-E4 cells; experiment: SirT1 protein levels in N2a-E4 cells (AlphaLISA); type: cell-based, murine; details: N2a-E4 cells, 5 µM, 24 h, vs DMSO control
Protocol: Relative SirT1 mRNA and protein enhancement by racemate DDL-214 and enantiomers DDL-218 and − 219 was determined in murine neuroblastoma cells stably transfected with ApoE4 (N2a-E4)[25]. All test compounds in DMSO were prepared at 2x the final concentration in DMEM supplemented with 10% fetal bovine serum (FBS) and 1% pen-strep (PS) and 50 µL of each loaded into individual wells of a 96-well plate. Previously cultured N2a-E4 were then trypsinized, harvested, centrifuged, and counted; then 50 µL of cell suspension adjusted to 400 cells/µL was added to each well. The plate was then incubated at 37 °C, 5% CO2 for 48 h. Cells were treated with DDL-214, DDL-218, or DDL-219 at 5 µM final then incubated for 24 h. After incubation, the cells were lysed with 50 µL of ice-cold lysis buffer (0.4% SDS, 3.5% Triton X-100, 0.02% sodium deoxycholate, 28 mM TRIS pH 8) complemented with 1X final Halt™ Protease and Phosphatase Inhibitor Cocktail (Thermo Fisher catalog # 78442), placed on ice for 10 min and at -80 °C, followed by 3 freeze/thaw cycles.
An AlphaLISA comprising streptavidin donor beads (Revvity catalog # 6760002 S), biotinylated anti-SirT1 N-terminal antibody (monoclonal 19A7AB4, Abcam catalog # ab110304), and acceptor beads (Revvity catalog # 6772001) conjugated to the anti-SirT1 C-terminal antibody (monoclonal 1F3, Abcam catalog # ab104833) was used to determine SirT1 protein levels. […] The plates were read using an Envision plate reader.
Figure S3B. […] Compound treatment was done at 5 and 50 µM. SirT1 levels were measured by AlphaLISA followed and normalized to protein […]
Brain tissue was homogenized in PBS (pH 7.4) (1: 3 weight(mg)/volume(µL)) and the protein concentration of was determined using the Micro BCA™ Protein Assay Kit (Thermo Fisher Scientific, Cat#23235). […]
The % of the unbound drug (fu,bound) was calculated using the following equation: fu,bound = [normalized peak area in buffer side / normalized peak area in brain side] x 100 Liver Microsome Stability [t1/2 (min)] […]

[4] = test system: SirT1 mRNA in Kelly cells; experiment: SirT1 mRNA in Kelly neuroblastoma cells; type: cell-based, human; details: 5 µM, 24 h, vs DMSO control
Protocol: Human neuroblastoma ‘Kelly’ cells (genotype APOE3/APOE4) were plated in 96-well plates at 50K cells per well and were grown overnight in RPMI 1640 supplemented with 2 mM Glutamine, 10% FBS and 1% Pen-Strep. Cells were treated with 5 µM DDL-214, -218, or -219; or DMSO vehicle (n = 8 per compound). Twenty-four hours later, medium was removed, cells washed and lysed as described above for N2a-E4 cells.
Total RNA was isolated from cells or brain tissue (Qiagen RNEasy kit). Total RNA (0.5–1.0 µg) mRNA was then converted to cDNA (SuperScript™ III First-Strand Synthesis SuperMix kit; Thermo Fisher), and gene mRNA levels were measured using a gene-specific qRT-PCR Taqman assays (Thermo Fisher). Gene mRNA levels were normalized to GAPDH mRNA levels measured either in the same cDNA sample or in the same qPCR reaction using multiplexing of gene-of-interest/VIC and GAPDH/FAM, normalized by the delta-delta-Ct method.

SMILES | brain Cmax ([1]; oral 30 mg/Kg, time course study, 30 mg/kg) | brain Cmax ([1]; oral gavage 10 mg/Kg, wildtype mouse, at one hour, 10 mg/kg) | brain levels ([1]; 30 mg/kg) | changes in mice behavior indicative of drug-induced toxicity [2] | SirT1 protein levels [3] | SirT1 mRNA [4]
CC(N)C(=O)OC(C)(C)Cc1ccncc1 (centres unmarked) [DDL-214] | ~ 9400 ng/g and 42.3 µM | 1270 ng/g and 5.7 µM | ~ 3000 ng/g and 13.5 µM | No notable changes in mice behavior | increased SirT1 protein levels | higher than DMSO control, but the difference was not significant
CC(N)C(=O)OC(C)(C)Cc1ccncc1 (centres unmarked) [DDL-219] |  |  | ~ 6500 ng/g and 29.2 µM | No notable changes in mice behavior |  | 
